The values below come from article PMC5988692, “AZ304, a novel dual BRAF inhibitor, exerts anti-tumour effects in colorectal cancer independently of BRAF genetic status” (British Journal of Cancer, 2018).

Structures are written as SMILES. Like-named read-outs stand apart in the source and are kept apart here.

One experiment concerns COLO205. The experiment can be described thus: Cell proliferation assay (cell panel, MTS). In kind it is cell-based. As to conditions: Homo sapiens, COLO 205, 72 h; COLO205, Colon, BRAF V600E HT, RAS WT, 3 days. The protocol:
(§1) The proliferation assays against a cell panel were performed as described in ref.[18] Briefly, the cells were treated with DMSO or multiple concentrations of AZ304 for 3 days. The cell growth was determined using the CellTiter 96 Aqueous One Cell Proliferation Assay (Promega, Madison, WI). […] The assays were done in triplicate across different plates.
(§2) Anti-proliferative activity of AZ304 against a panel of cell lines with different BRAF and RAS genetic status. […] Cell growth was determined by MTS assay.

The subject of a further experiment is A375pgp. The experiment in a line: Cell proliferation assay (cell panel, MTS). In kind it is cell-based. Conditions: Homo sapiens, 72 h, Melanoma, BRAF V600E HM, RAS WT, 3 days. As for the experimental part: as §1, §2
The test system of experiment [1] is panel of human cancer cell lines with different BRAF and RAS genetic statuses. The experiment can be described thus: Cell proliferation assay, ranges over the cell panel. It is filed as cell-based. Conditions: 72 h, 3 days, read-out: GI50 values, range. As for the experimental part: as §1, §2
In a further experiment the target is EGFR (Homo sapiens, UniProt P00533). The experiment can be described thus: Sandwich ELISA kinase assay. It is filed as biochemical. As to conditions: ATP Km. As for the experimental part: (§3) For RAF kinases, detailed assay information was described in ref.[18] Briefly, the kinase activity of BRAF WT, BRAF V600E, or CRAF was measured using an AlphaScreen assay (Perkin Elmer, MA) monitoring MEK1/2 phosphorylation at Ser217/221. For CDK2 and CDK4 kinases, activity was also measured by AlphaScreen, monitoring phosphorylation of biotin Rb peptide at Ser780. Similarly, MAP3K7, CSF1R and JAK2 kinase activity was measured by phosphorylation of their biotinylated substrates MKK6 kinase dead protein at Ser271/Thr275, or tyrosine phosphorylation of pEY or Tyk2 Tyr1054/1055 peptides, respectively. CSK, IGF1R, EGFR, FGFR1 and SRC kinase activity was measured using a sandwich ELISA detecting phosphorylated poly EAY peptide with a HRP conjugated phosphotyrosine antibody and TMB substrate, while p38 kinase activity was measured by monitoring phosphorylation of MBP protein with radiolabeled ^33P-ATP in a filter binding format. All assays were screened under respective ATP Km conditions and inhibitor IC50s were derived from either 5 (RAF kinases, CDK2, CDK4, MAP3K7, JAK2), 10 (CSK, IGF1R, EGFR, FGFR1, SRC) or 11 (p38, CSF1R) point compound dose response.
Chain of EGFR (P00533 25-1210, species assumed): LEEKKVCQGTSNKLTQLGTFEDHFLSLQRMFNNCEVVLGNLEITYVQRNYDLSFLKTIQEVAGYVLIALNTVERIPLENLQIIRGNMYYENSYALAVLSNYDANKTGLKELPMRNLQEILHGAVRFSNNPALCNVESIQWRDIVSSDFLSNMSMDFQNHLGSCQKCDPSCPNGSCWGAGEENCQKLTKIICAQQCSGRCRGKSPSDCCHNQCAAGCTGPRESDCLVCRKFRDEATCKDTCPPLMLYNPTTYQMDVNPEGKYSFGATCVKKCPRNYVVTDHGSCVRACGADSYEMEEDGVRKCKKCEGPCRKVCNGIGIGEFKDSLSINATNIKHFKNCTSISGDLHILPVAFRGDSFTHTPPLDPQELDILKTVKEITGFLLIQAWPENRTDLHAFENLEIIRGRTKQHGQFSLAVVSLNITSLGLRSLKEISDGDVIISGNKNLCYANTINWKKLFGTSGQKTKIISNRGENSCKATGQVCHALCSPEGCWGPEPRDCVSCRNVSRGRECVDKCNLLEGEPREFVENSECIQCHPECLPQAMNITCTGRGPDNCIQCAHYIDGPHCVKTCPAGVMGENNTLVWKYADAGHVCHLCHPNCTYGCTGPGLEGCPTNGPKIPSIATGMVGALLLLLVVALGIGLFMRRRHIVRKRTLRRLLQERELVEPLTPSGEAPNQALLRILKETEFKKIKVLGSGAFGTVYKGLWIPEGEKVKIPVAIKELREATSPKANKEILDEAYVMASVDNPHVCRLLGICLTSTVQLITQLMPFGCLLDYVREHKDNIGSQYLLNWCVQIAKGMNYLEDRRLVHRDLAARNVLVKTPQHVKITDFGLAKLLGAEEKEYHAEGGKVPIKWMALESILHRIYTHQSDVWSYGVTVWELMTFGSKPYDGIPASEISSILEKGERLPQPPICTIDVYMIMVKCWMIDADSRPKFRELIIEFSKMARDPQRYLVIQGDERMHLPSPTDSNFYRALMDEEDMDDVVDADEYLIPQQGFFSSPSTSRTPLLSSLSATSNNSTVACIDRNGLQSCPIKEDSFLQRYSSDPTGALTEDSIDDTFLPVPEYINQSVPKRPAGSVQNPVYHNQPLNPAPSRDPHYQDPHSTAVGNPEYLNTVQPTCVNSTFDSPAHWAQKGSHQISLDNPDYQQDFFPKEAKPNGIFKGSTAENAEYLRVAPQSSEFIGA
(In general: In an ELISA, binding on a coated surface is turned into a signal by an enzyme label.)

In another experiment the target is SRC (Homo sapiens, UniProt P12931). The experiment in a line: Sandwich ELISA kinase assay. It is filed as biochemical. Conditions: ATP Km. As for the experimental part: as §3
Chain of SRC (P12931 whole entry, species assumed): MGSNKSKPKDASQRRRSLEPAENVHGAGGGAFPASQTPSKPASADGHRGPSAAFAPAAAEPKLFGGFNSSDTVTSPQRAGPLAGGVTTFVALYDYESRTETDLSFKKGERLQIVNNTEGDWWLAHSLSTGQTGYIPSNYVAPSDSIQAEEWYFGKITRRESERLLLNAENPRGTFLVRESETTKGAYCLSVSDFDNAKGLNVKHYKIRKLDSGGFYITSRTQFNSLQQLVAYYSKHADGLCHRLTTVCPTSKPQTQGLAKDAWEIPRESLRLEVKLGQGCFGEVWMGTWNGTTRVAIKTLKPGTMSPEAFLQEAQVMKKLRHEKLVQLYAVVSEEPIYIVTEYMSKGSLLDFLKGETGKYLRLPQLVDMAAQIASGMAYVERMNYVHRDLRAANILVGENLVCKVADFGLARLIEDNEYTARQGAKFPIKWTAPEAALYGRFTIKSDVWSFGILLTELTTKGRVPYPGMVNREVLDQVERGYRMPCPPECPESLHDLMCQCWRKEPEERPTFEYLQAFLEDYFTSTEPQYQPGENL
A further experiment concerns the target FGFR (Homo sapiens, UniProt P11362). The experiment in a line: Sandwich ELISA kinase assay. In kind it is biochemical. Conditions: ATP Km. As for the experimental part: as §3
A further experiment addresses IGF1R (Homo sapiens, UniProt P08069). The experiment in a line: Sandwich ELISA kinase assay. In kind it is biochemical. As to conditions: ATP Km. As for the experimental part: as §3
Another experiment concerns the target CSK (Homo sapiens, UniProt P41240). The experiment can be described thus: Sandwich ELISA kinase assay. It is filed as biochemical. Conditions: ATP Km. As for the experimental part:
as §3

For experiment [2], the system named is RKO, HT-29, DiFi and Caco-2 cells. The experiment in a line: EdU incorporation assay. Conditions: four CRC cell lines, 24 h. It is filed as cell-based, human. As for the experimental part:
Selected colorectal cancer cells were seeded into 96-well plates (2000–5000 cells per well). After incubation for 24 h, the cells were pretreated with DMSO or AZ304 for 24 h. Then 50 μM of 5-ethynyl-2′-deoxyuridine (EdU, Ribobio, Guangzhou, China) was added to each well and the cells were incubated at 37 °C for 2 h before being fixed with 4% formaldehyde for 30 min and incubated with 2 mg/ml glycine for 5 min. After being washed with PBS for five times, the cells were reacted with 100 μL of 1 × Apollo reaction cocktail for 30 min. Afterwards, the 1 × Hoechst 33342 (5 μg/mL) was used to stain the nuclei.
Two V600E mutant BRAF cell lines (RKO, HT-29) and two wild-type BRAF cell lines (DiFi, Caco-2) were treated with DMSO or increasing concentrations of AZ304 (0, 0.1, 1, 10, 100 μM), for 48 h (a) and 72 h (b). Viable cells were determined by MTT assay. c EdU incorporation assay. Four cells lines from (a) were treated with DMSO or indicated AZ304 for 24 h, followed by incubation with EdU and Hoechst in sequence. […] Expression levels of phosphorylation ERK were analysed by Western blot. e BRAF mutant cell line RKO, and BRAF wild type cell line Caco-2 were treated with DMSO or 2 uM AZ304 for the indicated times. Expression levels of phosphorylation ERK were analysed by Western blot. […] Cell viability was determined by MTT assay

Another experiment concerns A375 cells. The experiment can be described thus: Western blot p-p38. In kind it is cell-based, human. Conditions: A375 (BRAF V600E), 75 min. The protocol:
For western-blotting in A375, A549 and MC-F7 cell lines, the detailed method was described in ref.[18] […] For western-blot in selected CRC cell lines, the cells were collected after treatment for indicated time and washed twice with cold PBS. Then cells were lysed in 1% Triton lysis buffer (50 mmol/L Tris-HCl, pH 7.4, 10 mmol/L EDTA, 100 mmol/L NaF, 150 mmol/L NaCl, 1% Triton X-100, 1 mmol/L PMSF 1 mmol/L Na3VO4 and 2 μg/mL aprotinin). After sonication and centrifugation, samples were quantified with the Lowry method. Next, all the protein samples were boiled at 95 °C for 5 min with 3× sampling buffer. After that, all the lysate samples were resolved by SDS polyacrylamide gel electrophoresis (SDS-PAGE) and followed by western blotting which means electronically transferred to nitrocellulose membranes. […] After washing for another four times, the protein bands were detected with enhanced chemiluminescence reagent (SuperSignal Western Pico Chemiluminescent Substrate; Pierce, Rockford, IL, USA) and visualised with the Electrophoresis Gel Imaging Analysis System (DNR Bio-Imaging Systems, Jerusalem, Israel).
Cells were incubated with DMSO or AZ304 for 75 min and p-ERK levels were determined using a p-ERK antibody based ELISA. […] Cells were incubated with DMSO or AZ304 (±EGF) for 75 min and p-ERK levels were determined using a p-ERK antibody based ELISA. […]
(In western blotting, separated proteins are transferred to a membrane and probed.)

Chain of IGF1R (P08069 31-1367, species assumed): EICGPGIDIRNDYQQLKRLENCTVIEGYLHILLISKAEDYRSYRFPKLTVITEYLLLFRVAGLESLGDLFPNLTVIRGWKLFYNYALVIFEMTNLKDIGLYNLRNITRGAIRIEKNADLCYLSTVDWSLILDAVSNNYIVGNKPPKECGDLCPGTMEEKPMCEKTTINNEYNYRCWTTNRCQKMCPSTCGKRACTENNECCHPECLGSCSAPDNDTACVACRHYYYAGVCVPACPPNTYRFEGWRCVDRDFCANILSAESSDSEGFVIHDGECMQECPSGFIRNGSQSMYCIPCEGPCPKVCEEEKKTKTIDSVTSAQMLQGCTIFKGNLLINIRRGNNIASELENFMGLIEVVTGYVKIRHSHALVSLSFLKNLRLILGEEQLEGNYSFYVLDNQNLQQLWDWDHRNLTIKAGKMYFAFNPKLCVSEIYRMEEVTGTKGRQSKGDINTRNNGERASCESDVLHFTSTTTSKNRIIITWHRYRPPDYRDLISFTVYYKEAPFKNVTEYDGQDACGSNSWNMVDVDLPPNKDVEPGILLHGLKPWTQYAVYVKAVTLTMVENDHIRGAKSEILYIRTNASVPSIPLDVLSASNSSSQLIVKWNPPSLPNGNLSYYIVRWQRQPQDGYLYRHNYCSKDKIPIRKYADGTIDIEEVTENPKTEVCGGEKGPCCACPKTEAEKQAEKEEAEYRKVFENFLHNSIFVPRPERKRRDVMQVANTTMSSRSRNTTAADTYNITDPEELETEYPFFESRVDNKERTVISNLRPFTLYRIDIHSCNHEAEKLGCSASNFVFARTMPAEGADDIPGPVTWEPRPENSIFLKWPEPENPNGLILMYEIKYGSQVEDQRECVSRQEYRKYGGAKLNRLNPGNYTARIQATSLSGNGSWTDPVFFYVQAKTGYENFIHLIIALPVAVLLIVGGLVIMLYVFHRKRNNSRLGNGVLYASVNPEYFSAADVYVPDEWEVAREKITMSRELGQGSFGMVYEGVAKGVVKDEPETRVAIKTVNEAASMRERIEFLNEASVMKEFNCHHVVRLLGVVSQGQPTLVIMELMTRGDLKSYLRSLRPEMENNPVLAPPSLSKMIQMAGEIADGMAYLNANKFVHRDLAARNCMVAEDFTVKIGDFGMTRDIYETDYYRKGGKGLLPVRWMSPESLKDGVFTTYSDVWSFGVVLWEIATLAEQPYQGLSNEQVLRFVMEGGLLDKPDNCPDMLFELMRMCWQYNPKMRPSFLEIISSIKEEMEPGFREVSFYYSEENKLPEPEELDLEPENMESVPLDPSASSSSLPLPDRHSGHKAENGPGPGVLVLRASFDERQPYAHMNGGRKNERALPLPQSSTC
Chain of FGFR (P11362 22-822): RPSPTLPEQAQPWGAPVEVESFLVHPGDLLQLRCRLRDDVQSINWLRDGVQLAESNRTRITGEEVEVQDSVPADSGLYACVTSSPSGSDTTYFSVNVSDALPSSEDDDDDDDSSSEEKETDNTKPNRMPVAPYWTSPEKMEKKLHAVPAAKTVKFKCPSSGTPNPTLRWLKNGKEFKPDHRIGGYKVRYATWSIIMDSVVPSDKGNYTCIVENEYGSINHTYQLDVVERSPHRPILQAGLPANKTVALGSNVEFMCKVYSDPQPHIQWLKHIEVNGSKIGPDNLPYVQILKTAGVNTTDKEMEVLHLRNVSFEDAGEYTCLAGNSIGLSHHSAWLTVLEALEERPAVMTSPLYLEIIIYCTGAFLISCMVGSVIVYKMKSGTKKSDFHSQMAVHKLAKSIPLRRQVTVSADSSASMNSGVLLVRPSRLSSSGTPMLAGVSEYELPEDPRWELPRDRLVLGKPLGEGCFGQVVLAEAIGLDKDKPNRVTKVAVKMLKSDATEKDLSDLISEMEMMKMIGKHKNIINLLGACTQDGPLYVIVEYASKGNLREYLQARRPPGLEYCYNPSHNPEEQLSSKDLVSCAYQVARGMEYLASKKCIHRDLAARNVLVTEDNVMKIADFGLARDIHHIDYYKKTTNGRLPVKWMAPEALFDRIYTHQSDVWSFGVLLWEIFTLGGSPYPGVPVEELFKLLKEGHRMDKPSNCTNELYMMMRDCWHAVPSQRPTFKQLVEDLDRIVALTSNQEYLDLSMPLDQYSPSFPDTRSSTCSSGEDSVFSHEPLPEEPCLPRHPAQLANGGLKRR
Chain of CSK (P41240 whole entry, species assumed): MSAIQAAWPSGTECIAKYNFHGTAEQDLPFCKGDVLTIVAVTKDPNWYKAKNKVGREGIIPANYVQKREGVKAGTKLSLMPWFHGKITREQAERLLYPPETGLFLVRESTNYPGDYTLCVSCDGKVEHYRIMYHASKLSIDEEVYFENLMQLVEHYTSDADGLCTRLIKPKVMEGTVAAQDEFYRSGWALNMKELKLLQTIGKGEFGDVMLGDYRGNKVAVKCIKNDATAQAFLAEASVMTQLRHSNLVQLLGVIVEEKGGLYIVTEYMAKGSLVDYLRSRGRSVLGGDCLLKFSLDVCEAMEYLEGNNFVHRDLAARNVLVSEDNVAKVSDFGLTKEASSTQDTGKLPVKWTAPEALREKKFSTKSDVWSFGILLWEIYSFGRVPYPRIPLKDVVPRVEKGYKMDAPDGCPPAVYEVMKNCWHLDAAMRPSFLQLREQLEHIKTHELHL

In the case of `COc1ccc2c(Nc3cc(NC(=O)c4cccc(C(C)(C)C#N)c4)ccc3C)ncnc2c1` [AZ304], the GI50 (usually the concentration that inhibits growth by half) is 0.28 µM in the experiment with COLO205; 0.43 µM in the experiment with A375pgp; 0.08 to 7.72 µM in [1] (mutant BRAF cell lines); 0.9 to 16.7 µM in experiment [1] (mutant RAS cell lines); 0.43 to 11.7 µM in experiment [1] (wild type BRAF/RAS cell lines). In addition, the IC50 (usually the concentration needed to halve the response being measured) at EGFR is greater than 10 µM; against SRC, greater than 10 µM; against FGFR, greater than 10 µM; against IGF1R, greater than 10 µM; against CSK, 7.05 µM. Also, the “DNA replication (EdU-positive cells)” value in experiment [2] is recorded as “suppressed DNA replication in CRC cells at all concentrations”. For the same compound, in the experiment on A375 cells, the “effect on p-p38” value is given as “potently inhibited p-p38”.
